Measured values from patent US12435104B2, “Cyclic dinucleotides as sting agonists” (BEIGENE, LTD., priority 2019, dated 2025).
Where a name gives a salt, the structure may show the parent alone.

Assays:
[1] = test system: hSTING-R232 in THP1-Dual KI-hSTING-R232 Cells; assay: STING cellular assay in THP1-Dual KI-hSTING-R232 cells (Lucia luciferase reporter); conditions: Homo sapiens, THP1-Dual KI-hSTING-R232, 24 h, read-out: Cellular activity EC50 in THP1-Dual KI-hSTING-R232 Cells
STING in THP1-Dual Cells = assay: STING cellular assay in THP1-Dual cells (ISG54-Lucia luciferase reporter); conditions: Homo sapiens, 24 h, read-out: Cellular activity EC50 in THP1-Dual Cells

Row | Compound | EC50 [1] | EC50 (STING in THP1-Dual Cells)
1 | Nc1nc2c(ncn2[C@@H]2O[C@@H]3COP(=O)(O)O[C@H]4[C@H](n5cnc6c(N)ncnc65)O[C@H](COP(=O)(O)O[C@H]3[C@H]2O)[C@]42CC2(F)F)c(=O)[nH]1 [Example 1, 2-amino-9-((1R,5′S,7′R,8′R,12a′R,14′R,15′R,15a′S)-7′-(6-amino-9H-purin-9-yl)-2,2-difluoro-2′,10′,15′-trihydroxy-2′,10′-dioxidooctahydro-12′H-spiro[cyclopropane-1,16′-[5,8]methanofuro[3,2-1][1,3,6,9,11]pentaoxa[2,10]diphosphacyclotetradecin]-14′-yl)-1,9-dihydro-6H-purin-6-one triethylamine salt] | 3210 nM | 2680 nM
2 | Nc1nc2c(ncn2[C@@H]2O[C@@H]3CO[P@@](O)(=S)O[C@H]4[C@H](n5cnc6c(N)ncnc65)O[C@H](COP(O)(=S)O[C@H]3[C@H]2F)[C@]42CC2(F)F)c(=O)[nH]1 (stereo partly drawn) [Example 2, 2-amino-9-((1R,5′S,7′R,8′R,10′R,12a′R,14′R,15′R,15a′R)-7′-(6-amino-9H-purin-9-yl)-2,2,15′-trifluoro-2′,10′-dihydroxy-2′,10′-disulfidooctahydro-12′H-spiro[cyclopropane-1,16′-[5,8]methanofuro[3,2-1][1,3,6,9,11]pentaoxa[2,10]diphosphacyclotetradecin]-14′-yl)-1,9-dihydro-6H-purin-6-one] | 2320 nM | 1760 nM
